Biological target: T1, Recombinant human TYK2 catalytic domain (amino acids 871-1187) (Homo sapiens, UniProt P29597)
T1 construct: catalytic domain (amino acids 871-1187)
T1 sequence (P29597 871-1187): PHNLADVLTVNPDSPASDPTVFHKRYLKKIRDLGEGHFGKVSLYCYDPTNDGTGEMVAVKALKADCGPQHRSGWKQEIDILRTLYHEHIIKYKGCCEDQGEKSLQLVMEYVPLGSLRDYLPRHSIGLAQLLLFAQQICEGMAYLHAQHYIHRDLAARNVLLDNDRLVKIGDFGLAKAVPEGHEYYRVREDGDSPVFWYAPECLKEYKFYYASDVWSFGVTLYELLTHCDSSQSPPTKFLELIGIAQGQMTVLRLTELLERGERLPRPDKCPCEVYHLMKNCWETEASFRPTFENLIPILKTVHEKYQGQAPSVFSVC
Test: TYK2 radioactive assay polyGT substrate; further: 0.1 µM ATP
Type: biochemical
Method: After 120 min at 30° C., reactions were stopped by adding 25 μL/well of 150 mM phosphoric acid. […] Plates were washed 6 times with 300 μL per well of a 75 mM phosphoric acid solution and the bottom of the plates is sealed. […] Kinase activity is calculated by subtracting counts per min (cpm) obtained in the presence of a positive control inhibitor (10 μM staurosporine) from cpm obtained in the presence of vehicle. The ability of a test compound to inhibit this activity (or percentage inhibition) is determined as: […]
cpm test compound=cpm determined for sample with test compound present cpm control=cpm determined for sample with positive control inhibitor cpm vehicle=cpm determined in the presence of vehicle
Dose dilution series were prepared for the compounds enabling the testing of dose-response effects in the TYK2 assay and the calculation of the IC50 for each compound. Each compound is routinely tested at concentration of 20 μM followed by a 1/5 serial dilution, 10 points in a final concentration of 1% DMSO.

Row | IC50 [nM] | Structure (SMILES)
1 | 2.08 | Cc1cc(C#N)ncc1Oc1cc(Nc2ccc(C(=O)N3CC(CO)(CO)C3)cn2)c2ncn(C)c2n1 [Compound 135, 5-[7-[[5-[3,3-bis(hydroxymethyl)azetidine-1-carbonyl]pyridin-2-yl]amino]-3-methylimidazo[4,5-b]pyridin-5-yl]oxy-4-methylpyridine-2-carbonitrile]
2 | 5.84 | COCCO[C@@H]1CCN(C(=O)c2ccc(Nc3cc(Oc4cnc(C#N)cc4C)nc4c3ncn4C)nc2)C1 [Compound 129, 5-[7-[[5-[(3R)-3-(2-methoxyethoxy)pyrrolidine-1-carbonyl]pyridin-2-yl]amino]-3-methylimidazo[4,5-b]pyridin-5-yl]oxy-4-methylpyridine-2-carbonitrile]
3 | 2.76 | Cc1cc(C#N)ncc1Oc1cc(Nc2ccc(C(=O)N(C)CCO)cn2)c2ncn(C)c2n1 [Compound 136, 6-[[5-(6-cyano-4-methylpyridin-3-yl)oxy-3-methylimidazo[4,5-b]pyridin-7-yl]amino]-N-(2-hydroxyethyl)-N-methylpyridine-3-carboxamide]
4 | 38.9 | CCNC(=O)Cc1ccc(Nc2cc(Oc3cnc(C#N)cc3C)nc3c2ncn3C)cc1 [Compound 27, 2-{4-[5-(6-Cyano-4-methyl-pyridin-3-yloxy)-3-methyl-3H-imidazo[4,5-b]pyridin-7-ylamino]-phenyl}-N-ethyl-acetamide]
5 | 3.36 | Cc1cc(C#N)ncc1Oc1cc(Nc2ccc(C(=O)N3CC[C@@H](O)C3)cn2)c2ncn(C)c2n1 [Compound 127, 5-[7-[[5-[(3R)-3-hydroxypyrrolidine-1-carbonyl]pyridin-2-yl]amino]-3-methylimidazo[4,5-b]pyridin-5-yl]oxy-4-methylpyridine-2-carbonitrile]
6 | 5.54 | Cc1cc(C#N)ncc1Oc1cc(Nc2ccc(C(=O)N3CCC(N(C)C)CC3)cn2)c2ncn(C)c2n1 [Compound 126, 5-[7-[[5-[4-(dimethyalmino)piperidine-1-carbonyl]pyridin-2-yl]amino]-3-methylimidazo[4,5-b]pyridin-5-yl]oxy-4-methylpyridine-2-carbonitrile]
7 | 0.97 | Cc1cc(C#N)ncc1Oc1cc(Nc2ccc(C(=O)N3CCOC[C@H]3C(C)C)cn2)c2ncn(C)c2n1 [Compound 157, 4-methyl-5-[3-methyl-7-[[5-[(3R)-3-propan-2-ylmorpholine-4-carbonyl]pyridin-2-yl]amino]imidazo[4,5-b]pyridin-5-yl]oxypyridine-2-carbonitrile]
8 | 1.02 | Cc1cc(C#N)ncc1Oc1cc(Nc2ccc(C(=O)N3CCOCC3C3CC3)cn2)c2ncn(C)c2n1 (centres unmarked) [Compound 159, 5-[7-[[5-(3-cyclopropylmorpholine-4-carbonyl)pyridin-2-yl]amino]-3-methylimidazo[4,5-b]pyridin-5-yl]oxy-4-methylpyridine-2-carbonitrile]
9 | 1.9 | COC1(C)CN(C(=O)c2ccc(Nc3cc(Oc4cnc(C#N)cc4C)nc4c3ncn4C)nc2)C1 [Compound 121, 5-[7-[[5-(3-methoxy-3-methyl-azetidine-1-carbonyl)-2-pyridyl]amino]-3-methyl-imidazo[4,5-b]pyridin-5-yl]oxy-4-methyl-pyridine-2-carbonitrile]
10 | 9.36 | Cc1cc(C#N)ncc1Oc1cc(Nc2ccc(C(=O)NCCCO)cn2)c2ncn(C)c2n1 [Compound 101, 6-[[5-[(6-cyano-4-methyl-3-pyridyl)oxy]-3-methyl-imidazo[4,5-b]pyridin-7-yl]amino]-N-(3-hydroxypropyl)pyridine-3-carboxamide]
11 | 4.53 | CO[C@@H]1CN(C(=O)c2ccc(Nc3cc(Oc4cnc(C#N)cc4C)nc4c3ncn4C)nc2)C[C@H]1F (racemic) [Compound 142, 4-methyl-5-[3-methyl-7-[[5-[rac-(3R,4R)-3-fluoro-4-methoxypyrrolidine-1-carbonyl]pyridin-2-yl]amino]imidazo[4,5-b]pyridin-5-yl]oxypyridine-2-carbonitrile]
12 | 97.4 | CNC(=O)c1ccc(Nc2cc(Oc3cnc(C#N)cc3C)nc3c2ncn3C)cn1 [Compound 29, 5-[5-(6-Cyano-4-methyl-pyridin-3-yloxy)-3-methyl-3H-imidazo[4,5-b]pyridin-7-ylamino]-pyridine-2-carboxylic acid methylamide]
13 | 1.39 | Cc1cc(C#N)ncc1Oc1cc(Nc2ccc(C(=O)N3CCOC(C#N)C3)cn2)c2ncn(C)c2n1 (centres unmarked) [Compound 160, 4-[6-[[5-(6-cyano-4-methylpyridin-3-yl)oxy-3-methylimidazo[4,5-b]pyridin-7-yl]amino]pyridine-3-carbonyl]morpholine-2-carbonitrile]
14 | 2.05 | Cc1cc(C#N)ncc1Oc1cc(Nc2ccc(C(=O)N3CCOC(C(F)(F)F)C3)cn2)c2ncn(C)c2n1 (centres unmarked) [Compound 155, 4-methyl-5-[3-methyl-7-[[5-[2-(trifluoromethyl)morpholine-4-carbonyl]pyridin-2-yl]amino]imidazo[4,5-b]pyridin-5-yl]oxypyridine-2-carbonitrile]
15 | 2.17 | Cc1cc(C#N)ncc1Oc1cc(Nc2ccc(N3CCC(C#N)CC3)nn2)c2ncn(C)c2n1 [Compound 45, 5-{7-[6-(4-Cyano-piperidin-1-yl)-pyridazin-3-ylamino]-3-methyl-3H-imidazo[4,5-b]pyridin-5-yloxy}-4-methyl-pyridine-2-carbonitrile]
16 | 26.7 | Cc1cc(C#N)ncc1Oc1cc(Nc2ccc(N3CCN(C)CC3)cc2)c2ncn(C)c2n1 [Compound 110, 4-methyl-5-[3-methyl-7-[4-(4-methylpiperazin-1-yl)anilino]imidazo[4,5-b]pyridin-5-yl]oxy-pyridine-2-carbonitrile]
17 | 8.93 | Cc1cc(C#N)ncc1Oc1cc(Nc2ccc(C(=O)N3CC(CN(C)C)C3)cn2)c2ncn(C)c2n1 [Compound 132, 5-[7-[[5-[3-[(dimethylamino)methyl]azetidine-1-carbonyl]pyridin-2-yl]amino]-3-methylimidazo[4,5-b]pyridin-5-yl]oxy-4-methylpyridine-2-carbonitrile]
18 | 2.87 | Cc1cc(C#N)ncc1Oc1cc(Nc2ccc(C(=O)N3C[C@@H](O)[C@H](F)C3)cn2)c2ncn(C)c2n1 (racemic) [Compound 140, 4-methyl-5-[3-methyl-7-[[5-[rac-(3R,4R)-3-fluroo-4-hydroxypyrrolidine-1-carbonyl]pyridin-2-yl]amino]imidazo[4,5-b]pyridin-5-yl]oxypyridine-2-carbonitrile]
19 | 2.1 | Cc1cc(C#N)ncc1Oc1cc(Nc2ccc(C(=O)N3CC4(COC4)C3)cn2)c2ncn(C)c2n1 [Compound 134, 4-methyl-5-[3-methyl-7-[[5-(2-oxa-6-azaspiro[3.3]heptane-6-carbonyl)pyridin-2-yl]amino]imidazo[4,5-b]pyridin-5-yl]oxypyridine-2-carbonitrile]
20 | 2.51 | Cc1cc(C#N)ncc1Oc1cc(Nc2ccc(C(=O)N3CCC(O)CC3)cn2)c2ncn(C)c2n1 [Compound 124, 5-[7-[[5-(4-hydroxypiperidine-1-carbonyl)pyridin-2-yl]amino]-3-methylimidazo[4,5-b]pyridin-5-yl]oxy-4-methylpyridine-2-carbonitrile]
21 | 2.98 | Cc1cc(C#N)ncc1Oc1cc(Nc2ccc(C(=O)N(C)C)c(C)n2)c2ncn(C)c2n1 [Compound 77, 6-[[5-[(6-cyano-4-methyl-3-pyridyl)oxy]-3-methyl-imidazo[4,5-b]pyridin-7-yl]amino]-N,N,2-trimethyl-pyridine-3-carboxamide]
22 | 1.75 | Cc1cc(C#N)ncc1Oc1cc(Nc2ccc(C(=O)N3CCOC(C4CC4)C3)cn2)c2ncn(C)c2n1 (centres unmarked) [Compound 156, 5-[7-[[5-(2-cyclopropylmorpholine-4-carbonyl)pyridin-2-yl]amino]-3-methylimidazo[4,5-b]pyridin-5-yl]oxy-4-methylpyridine-2-carbonitrile]
23 | 24.4 | Cc1cc(C#N)ncc1Oc1cc(Nc2ccc(N3CCOCC3)cc2)c2ncn(C)c2n1 [Compound 109, 4-methyl-5-[3-methyl-7-(4-morpholinoanilino)imidazo[4,5-b]pyridin-5-yl]oxy-pyridine-2-carbonitrile]
24 | 2.06 | Cc1cc(C#N)ncc1Oc1cc(Nc2ccc(C(=O)N3CCOCC3C#N)cn2)c2ncn(C)c2n1 (centres unmarked) [Compound 162, 4-[6-[[5-(6-cyano-4-methylpyridin-3-yl)oxy-3-methylimidazo[4,5-b]pyridin-7-yl]amino]pyridine-3-carbonyl]morpholine-3-carbonitrile]
25 | 4.55 | Cc1cc(C#N)ncc1Oc1cc(Nc2ccc(N3CC(N(C)C)C3)nn2)c2ncn(C)c2n1 [Compound 143, 5-[7-[[6-[3-(dimethylamino)azetidin-1-yl]pyridazin-3-yl]amino]-3-methylimidazo[4,5-b]pyridin-5-yl]oxy-4-methylpyridine-2-carbonitrile]
26 | 27.1 | Cc1cc(C#N)ncc1Oc1cc(Nc2ccc(C(=O)N3CCOCC3)nc2)c2ncn(C)c2n1 [Compound 28, 4-Methyl-5-{3-methyl-7-[6-(morpholine-4-carbonyl)-pyridin-3-ylamino]-3H-imidazo[4,5-b]pyridin-5-yloxy}-pyridine-2-carbonitrile]

Reference: US11564923B2, “Compounds and pharmaceutical compositions thereof for the treatment of inflammatory disorders” (Galapagos NV, priority 2017, dated 2023)
